Results as given in patent US20150105252A1, “SUBSTITUTED PYRAZOLES AS HERBICIDES” (E I DU PONT DE NEMOURS AND COMPANY, priority 2013, published 2015).

Legend:
morningglory = test: Test A postemergence; assay type: in vivo, Ipomoea spp.
Outline: (§1)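 Pre- and postemergence greenhouse test; loam+sand; cpd in non-phytotox. solvent/surfactant; post at 1–2 leaf, 2–10 cm; visual score ~10 d, 0 = none, 100 = complete control.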

chickweed = test: Test C postemergence; assay type: in vivo, Stellaria media; details: for Plant response rating (scale of 0 to 100 where 0 is no effect and 100 is complete control), Chickweed: Postemergence, 31 g ai/ha, visually evaluated after 13 to 15 days; for Chickweed plant response rating / Plant response rating, Chickweed: postemergence; for Chickweed plant response rating: 62 g ai/ha, scale 0 to 100
Outline: (§2)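 Visual control ratings on a 0–100 scale (100 = complete control) made against untreated controls after 13 to 15 days in greenhouse. Compounds applied in surfactant-containing solvent mixture, either preemergence to loam/sand-sown seeds or postemergence to 1- to 4-leaf plants (2–18 cm) in peat medium.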

galium = test: Test C postemergence; assay type: in vivo, Galium aparine; details: for Plant response rating (scale of 0 to 100 where 0 is no effect and 100 is complete control), Galium: Postemergence, 31 g ai/ha, visually evaluated after 13 to 15 days; for Galium plant response rating / Plant response rating, Galium: postemergence; for Galium plant response rating: 62 g ai/ha, scale 0 to 100
Outline: as §2

johnsongrass = test: Test C postemergence; assay type: in vivo, Sorghum halepense; details: for Plant response rating (scale of 0 to 100 where 0 is no effect and 100 is complete control), Johnsongrass: Postemergence, 31 g ai/ha, visually evaluated after 13 to 15 days; for Johnsongrass plant response rating / Plant response rating, Johnsongrass: postemergence; for Johnsongrass plant response rating: 62 g ai/ha, scale 0 to 100
Outline: as §2

ducksalad = test: Test B flood; assay type: in vivo, Heteranthera limosa; details: 250 g ai/ha, visual rating on 0 to 100 scale (0 no effect, 100 complete control), 13 to 15 days
Outline: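 2-leaf plants; pots flooded 3 cm over soil; compound added to paddy water, depth kept constant. Greenhouse 13–15 d. Visual rating vs controls, 0–100 scale (100 = complete control); dash = no result.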

foxtail, giant [1] = test: Test C preemergence; assay type: in vivo, Setaria faberii
Outline: as §2

oat, wild = test: Test C postemergence; assay type: in vivo, Avena fatua; details: for Plant response rating (scale of 0 to 100 where 0 is no effect and 100 is complete control), Oat, Wild: Postemergence, 31 g ai/ha, visually evaluated after 13 to 15 days; for Oat, Wild plant response rating / Plant response rating, Oat, Wild: postemergence; for Oat, Wild plant response rating: 62 g ai/ha, scale 0 to 100
Outline: as §2

foxtail, giant [2] = test: Test A preemergence; assay type: in vivo, Setaria faberii; details: preemergence
Outline: as §1

waterhemp [3] = test: Test C postemergence; assay type: in vivo, Amaranthus rudis; details: for Plant response rating, Waterhemp / Waterhemp plant response rating: postemergence; for Waterhemp plant response rating: scale 0 to 100
Outline: as §2

waterhemp [4] = test: Test C preemergence; assay type: in vivo, Amaranthus rudis
Outline: as §2

foxtail, giant [5] = test: Test A postemergence; assay type: in vivo, Setaria faberii
Outline: as §1

crabgrass, large = test: Test C preemergence; assay type: in vivo, Digitaria sanguinalis
Outline: as §2

foxtail, giant [6] = test: Test C postemergence; assay type: in vivo, Setaria faberii; details: for Plant response rating (scale of 0 to 100 where 0 is no effect and 100 is complete control), Foxtail, Giant: Postemergence, 31 g ai/ha, visually evaluated after 13 to 15 days; for Foxtail, Giant plant response rating / Plant response rating, Foxtail, Giant: postemergence; for Foxtail, Giant plant response rating: 62 g ai/ha, scale 0 to 100
Outline: as §2

[7] = Postemergence, 500 g ai/ha, 0 to 100 scale (0 no effect, 100 complete control)
[8] = postemergence, 125 g ai/ha, about 10 days, visual rating on 0 to 100 scale (0 no effect, 100 complete control)
[9] = 250 g ai/ha, scale 0 to 100 (0 no effect, 100 complete control)
[10] = 125 g ai/ha, scale 0 to 100, 0 no effect, 100 complete control
[11] = preemergence, 31 g ai/ha, visual rating, scale 0 to 100 (0 no effect, 100 complete control), 13 to 15 days
[12] = preemergence, 62 g ai/ha, scale 0 to 100 (0 no effect, 100 complete control), 13 to 15 days
[13] = preemergence, 125 g ai/ha, 13 to 15 days, scale 0 to 100, 0 = no effect, 100 = complete control
[14] = preemergence, 250 g ai/ha, scale 0 to 100, 0 is no effect, 100 is complete control
[15] = 500 g ai/ha, visual injury after approx. 10 days, 0 to 100 scale (0 no effect, 100 complete control)
[16] = Postemergence, 500 g ai/ha, visual rating after approx. 10 days, 0 to 100 scale (0 no effect, 100 complete control)
[17] = preemergence, 125 g ai/ha, scale 0 to 100, 0 is no effect, 100 is complete control

CCOc1cc(C(=O)NOC(C)C)nn1Cc1ccnc(C(F)(F)F)c1 [Compound 153]
Morningglory plant response rating (morningglory; [7]): 100
Morningglory plant response rating (morningglory; [8]): 100
Plant response rating (scale of 0 to 100 where 0 is no effect and 100 is complete control), Chickweed (chickweed): 50
Chickweed plant response rating (chickweed): 70
Plant response rating, Chickweed (chickweed; [9]): 80
Plant response rating, Chickweed (chickweed; [10]): 70
Plant response rating (scale of 0 to 100 where 0 is no effect and 100 is complete control), Galium (galium): 50
Galium plant response rating (galium): 60
Plant response rating, Galium (galium; [9]): 80
Plant response rating, Galium (galium; [10]): 70
Plant response rating (scale of 0 to 100 where 0 is no effect and 100 is complete control), Johnsongrass (johnsongrass): 0
Johnsongrass plant response rating (johnsongrass): 5
Plant response rating, Johnsongrass (johnsongrass; [9]): 5
Plant response rating, Johnsongrass (johnsongrass; [10]): 0
Plant response rating, Ducksalad (ducksalad): 90
Foxtail, Giant plant response rating (foxtail, giant [1]; [11]): 60
Foxtail, Giant plant response rating (foxtail, giant [1]; [12]): 85
Plant response rating, Foxtail, Giant (foxtail, giant [1]; [13]): 100
Foxtail, Giant plant response rating (foxtail, giant [1]; [14]): 100
Plant response rating (scale of 0 to 100 where 0 is no effect and 100 is complete control), Oat, Wild (oat, wild): 5
Oat, Wild plant response rating (oat, wild): 10
Plant response rating, Oat, Wild (oat, wild; [9]): 20
Plant response rating, Oat, Wild (oat, wild; [10]): 5
Foxtail, Giant plant response rating (0 to 100 scale) (foxtail, giant [2]; 125 g ai/ha, visual injury approx. 10 days after treatment): 100
Foxtail, Giant plant response rating (foxtail, giant [2]; [15]): 100
Plant response rating, Waterhemp (waterhemp [3]; [9]): 65
Waterhemp plant response rating (waterhemp [3]): 40
Waterhemp plant response rating (waterhemp [4]; [11]): 60
Waterhemp plant response rating (waterhemp [4]; [12]): 100
Plant response rating, Waterhemp (waterhemp [4]; [13]): 100
Waterhemp plant response rating (waterhemp [4]; [14]): 100
Foxtail, Giant plant response rating (foxtail, giant [5]; [7]): 100
Foxtail, Giant plant response rating (foxtail, giant [5]; [8]): 100
Crabgrass, Large plant response rating (crabgrass, large; [11]): 85
Crabgrass, Large plant response rating (crabgrass, large; [12]): 98
Plant response rating, Crabgrass, Large (crabgrass, large; [13]): 100
Crabgrass, Large plant response rating (crabgrass, large; [14]): 100
Plant response rating (scale of 0 to 100 where 0 is no effect and 100 is complete control), Foxtail, Giant (foxtail, giant [6]): 5
Foxtail, Giant plant response rating (foxtail, giant [6]): 5
Plant response rating, Foxtail, Giant (foxtail, giant [6]; [9]): 65
Plant response rating, Foxtail, Giant (foxtail, giant [6]; [10]): 10

CCc1cc(C(=O)NCC(F)(F)F)nn1Cc1cc(C(F)(F)F)nn1C [Compound 108, 5-ethyl-1-[[1-methyl-3-(trifluoromethyl)-1H-pyrazole-5-yl]methyl]-N-(2,2,2-trifluoroethyl)-1H-pyrazole-3-carboxamide]
Morningglory plant response rating (morningglory; [16]): 100
Morningglory plant response rating (morningglory; [8]): 90
Plant response rating (scale of 0 to 100 where 0 is no effect and 100 is complete control), Chickweed (chickweed): 85
Chickweed plant response rating (chickweed): 100
Plant response rating, Chickweed (chickweed; [9]): 100
Plant response rating, Chickweed (chickweed; [10]): 100
Plant response rating (scale of 0 to 100 where 0 is no effect and 100 is complete control), Galium (galium): 60
Galium plant response rating (galium): 60
Plant response rating, Galium (galium; [9]): 90
Plant response rating, Galium (galium; [10]): 80
Plant response rating (scale of 0 to 100 where 0 is no effect and 100 is complete control), Johnsongrass (johnsongrass): 0
Johnsongrass plant response rating (johnsongrass): 0
Plant response rating, Johnsongrass (johnsongrass; [9]): 5
Plant response rating, Johnsongrass (johnsongrass; [10]): 0
Plant response rating, Ducksalad (ducksalad): 60
Plant response rating (scale of 0 to 100), Foxtail, Giant (foxtail, giant [1]; Preemergence, 250 g ai/ha): 100
Foxtail, Giant plant response rating (foxtail, giant [1]; [11]): 100
Foxtail, Giant plant response rating (foxtail, giant [1]; [12]): 100
Foxtail, Giant plant response rating (foxtail, giant [1]; [17]): 100
Plant response rating (scale of 0 to 100 where 0 is no effect and 100 is complete control), Oat, Wild (oat, wild): 10
Oat, Wild plant response rating (oat, wild): 10
Plant response rating, Oat, Wild (oat, wild; [9]): 20
Plant response rating, Oat, Wild (oat, wild; [10]): 15
Foxtail, Giant plant response rating (foxtail, giant [2]; 125 g ai/ha, visual injury, 0 to 100 scale, approx. 10 days): 100
Foxtail, Giant plant response rating (foxtail, giant [2]; [15]): 100
Plant response rating (scale of 0 to 100 where 0 is no effect and 100 is complete control), Waterhemp (waterhemp [3]; Postemergence, 31 g ai/ha, visually evaluated after 13 to 15 days): 5
Waterhemp plant response rating (waterhemp [3]; 62 g ai/ha): 50
Plant response rating, Waterhemp (waterhemp [3]; [9]): 80
Plant response rating, Waterhemp (waterhemp [3]; [10]): 50
Plant response rating (scale of 0 to 100), Waterhemp (waterhemp [4]; Preemergence, 250 g ai/ha): 100
Waterhemp plant response rating (waterhemp [4]; [11]): 98
Waterhemp plant response rating (waterhemp [4]; [12]): 100
Waterhemp plant response rating (waterhemp [4]; [17]): 100
Foxtail, Giant plant response rating (foxtail, giant [5]; [16]): 100
Foxtail, Giant plant response rating (foxtail, giant [5]; [8]): 90
Plant response rating (scale of 0 to 100), Crabgrass, Large (crabgrass, large; Preemergence, 250 g ai/ha): 100
Crabgrass, Large plant response rating (crabgrass, large; [11]): 100
Crabgrass, Large plant response rating (crabgrass, large; [12]): 100
Crabgrass, Large plant response rating (crabgrass, large; [17]): 100
Plant response rating (scale of 0 to 100 where 0 is no effect and 100 is complete control), Foxtail, Giant (foxtail, giant [6]): 10
Foxtail, Giant plant response rating (foxtail, giant [6]): 30
Plant response rating, Foxtail, Giant (foxtail, giant [6]; [9]): 45
Plant response rating, Foxtail, Giant (foxtail, giant [6]; [10]): 40
